Experimental data published in patent EP4635949A1 (Jiangsu NHWA Pharmaceutical Co., Ltd, priority 2022, dated 2024).
Like-named read-outs stand apart in the source and are kept apart here.

Assays:
[1] = in vivo; settings: male, SD, rat, 30 mg/kg
Method: (§3) Twelve male SD rats were randomly divided into 4 groups, with 3 rats in each group. They were fasted for 8 hours before the test and had free access to water. The rats were intragastrically administered with 30 mg/kg of the test substance solution, and 0.3 mL of blood was collected from the jugular venous plexus of the rats before and 0.25 hours after administration. The rats were then anesthetized, the chest cavity was opened, the right atrial appendage was cut, and the blood was rapidly perfused from the back of the left ventricle. When the outflowing liquid was transparent and bloodless, the perfusion could be stopped, and the brain tissue was removed, dried with filter paper, weighed, and homogenized with an appropriate amount of physiological saline (1:4, v/v) to prepare a brain tissue homogenate. The whole blood sample was centrifuged at 4000 r/min for 10 min to separate the plasma.
(§4) The established LC-MS/MS method is used to detect the concentration of the test substance in plasma and brain tissue homogenate. The brain-to-blood ratio (Kb/p) of the test substance can be obtained by dividing the drug concentration in brain tissue by the drug concentration in plasma.

[2] = molecular target: T1, OX2 receptor (Homo sapiens, UniProt O43614); assay: Orexin target function test (Cisbio HTRF IP-one), CHO-K1-OX2 cells, antagonism of EC80 Orexin 2 receptor agonist; type: cell-based
T1 construct: host or cells: CHO-K1
T1 sequence (O43614 1-444): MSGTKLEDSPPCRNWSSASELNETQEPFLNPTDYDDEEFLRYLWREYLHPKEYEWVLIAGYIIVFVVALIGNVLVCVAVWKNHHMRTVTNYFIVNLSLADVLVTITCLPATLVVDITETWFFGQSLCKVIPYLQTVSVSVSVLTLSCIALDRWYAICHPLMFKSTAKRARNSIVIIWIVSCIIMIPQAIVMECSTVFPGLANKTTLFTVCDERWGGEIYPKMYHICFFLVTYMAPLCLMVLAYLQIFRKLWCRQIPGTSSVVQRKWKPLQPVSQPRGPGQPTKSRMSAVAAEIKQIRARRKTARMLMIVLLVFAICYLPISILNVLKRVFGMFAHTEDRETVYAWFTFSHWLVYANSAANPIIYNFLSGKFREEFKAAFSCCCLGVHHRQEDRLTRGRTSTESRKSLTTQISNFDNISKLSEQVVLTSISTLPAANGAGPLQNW
Method: (§1) Using Cisbio HTRF IP-one kit to detect the changes in IP-one concentration of orexin receptor (OX1/OX2) signaling pathway by microplate reader, and calculating the IC50 value of the compound to evaluate the antagonistic effect of the compound on OX1 and OX2 receptors.
(§2) The cells were centrifuged at 1000 rpm for 5 minutes and the supernatant was discarded. 3 mL of PBS was added, and gently blown with a pipette to mix. After centrifugation at 1000 rpm for 5 minutes again, the supernatant was discarded. […] Based on the antagonistic effect values of the compound samples at different concentrations, the GraphPad Prism software was used to fit the orexin receptor antagonism curve of the compound samples and calculate the IC50.

[3] = molecular target: T2, OX1 receptor (Homo sapiens, UniProt O43613); assay: Orexin target function test (Cisbio HTRF IP-one), CHO-K1-OX1 cells, antagonism of EC80 Orexin A; type: cell-based
T2 construct: host or cells: CHO-K1
T2 sequence (O43613 1-425): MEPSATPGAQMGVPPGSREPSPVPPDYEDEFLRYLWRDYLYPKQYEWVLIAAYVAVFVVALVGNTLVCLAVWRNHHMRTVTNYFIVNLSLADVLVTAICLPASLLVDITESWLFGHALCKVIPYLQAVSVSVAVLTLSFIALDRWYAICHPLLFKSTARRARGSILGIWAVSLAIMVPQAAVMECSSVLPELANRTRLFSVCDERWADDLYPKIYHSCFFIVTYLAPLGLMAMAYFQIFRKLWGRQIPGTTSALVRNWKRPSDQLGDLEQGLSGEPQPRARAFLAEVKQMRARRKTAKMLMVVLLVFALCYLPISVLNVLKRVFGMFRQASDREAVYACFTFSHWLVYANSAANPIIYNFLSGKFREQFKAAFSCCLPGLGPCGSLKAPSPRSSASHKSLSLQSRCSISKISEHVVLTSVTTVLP
Method: as §1, §2

[4] = male, SD, rat, in vivo, 30 mg/kg
Method: as §3, §4

[5] = Blood-brain barrier permeability of the test substance in rats; settings: male, SD, rat, oral, 30 mg/kg; for Kp at 0.25 h: brain/plasma
Method: as §3, §4

[6] = in vivo; settings: male, SD, rat, plasma
[7] = CHO-K1-OX2 cells, IP-one, read-out: hOX2R IC50
[8] = CHO-K1-OX1 cells, IP-one, read-out: hOXIR IC50

Structure (SMILES)	Kp [1]	IC50 [2] [nM]	Selectivity [2]	IC50 [3] [nM]	Brain [4] [ng/g]	Plasma [4] [ng/mL]	IC50 [2, 7] [nM]	IC50 [3, 8] [nM]	concentration at 0.25 h ([5]; brain) [ng/g]	Kp at 0.25 h [5]	concentration at 0.25 h ([5]; plasma) [ng/mL]	AUC(0-t) ([6]; iv, 1 mg/kg) [ng·h/mL]	Cmax ([6]; iv, 1 mg/kg) [ng/mL]	AUC(0-t) ([6]; po, 30 mg/kg) [ng·h/mL]	Cmax ([6]; po, 30 mg/kg) [ng/mL]	bioavailability ([6]; po, 30 mg/kg) [%]
COc1ncc(C)nc1C1=CC2CN(C(=O)c3ccc(F)cc3-n3nccn3)CC2C1 (centres unmarked) [Compound 44, [4-fluoro-2-(2H-1,2,3-triazol-2-yl)phenyl][5-(3-methoxy-6-methylpyrazin-2-yl)-3,3a,4,6a-tetrahydrocyclopenta[c]pyrrol-2(1H)-yl]methanone]	0.98	18	133	2400	231.3	235.6	–	–	–	–	–	–	–	–	–	–
COc1cc(C(=O)N2CC3C=C(c4nc(C)cnc4OC)CC3C2)c(-n2nccn2)cn1 (centres unmarked) [Compound 42, (2-methoxy-5-(2H-1,2,3-triazol-2-yl)pyridin-4-yl)(5-(3-methoxy-6-methylpyrazin-2-yl)-3,3a,4,6a-tetrahydrocyclopenta[c]pyrrol-2(1H)-yl)methanone]	–	–	54	–	–	–	24	1300	193	0.52	372	–	–	–	–	–
COc1ncc(C)nc1C1=CC2CN(C(=O)c3c(F)cccc3-n3nccn3)CC2C1 (centres unmarked) [Compound 39, (2-fluoro-6-(2H-1,2,3-triazol-2-yl)phenyl)(5-(3-methoxy-6-methylpyrazin-2-yl)-3,3a,4,6a-tetrahydrocyclopenta[c]pyrrol-2(1H)-yl)methanone]	–	–	60	–	–	–	20	1200	285	0.28	1020	–	–	–	–	–
COc1ccc(C(=O)N2CC3C=C(c4nc(C)cnc4OC)CC3C2)c(-n2nccn2)c1 (centres unmarked) [Compound 41, (4-methoxy-2-(2H-1,2,3-triazol-2-yl)phenyl)(5-(3-methoxy-6-methylpyrazin-2-yl)-3,3a,4,6a-tetrahydrocyclopenta[c]pyrrol-2(1H)-yl)methanone]	–	–	87	–	–	–	19	1650	990	0.39	2570	389	706	5600	3980	48
